# Reference: publication PMC3914206
# Assays:
# Assay type in all cases: binding
# Design in all cases: KINOMEscan: ABL1(F317L)-phosphorylated / KINOMEscan: ABL1(H396P)-nonphosphorylated / KINOMEscan: ABL1(H396P)-phosphorylated / KINOMEscan: ABL1(M351T)-phosphorylated / KINOMEscan: ABL1(T315I)-phosphorylated / KINOMEscan: ABL1-nonphosphorylated / KINOMEscan: ABL1-phosphorylated / KINOMEscan: ACVR2A / KINOMEscan: ACVR2B / KINOMEscan: ADCK3 / KINOMEscan: ADCK4 / KINOMEscan: AKT1 / KINOMEscan: AKT3 / KINOMEscan: ALK / KINOMEscan: ARK5 / KINOMEscan: AURKA / KINOMEscan: AURKC / KINOMEscan: BIKE / KINOMEscan: BMPR1A / KINOMEscan: BMPR1B / KINOMEscan: BMX / KINOMEscan: BRK / KINOMEscan: BRSK1 / KINOMEscan: BRSK2 / KINOMEscan: CAMK1 / KINOMEscan: CAMK1D / KINOMEscan: CAMK1G / KINOMEscan: CAMK2A / KINOMEscan: CAMK2B / KINOMEscan: AAK1 / KINOMEscan: CAMK2D / KINOMEscan: CAMK2G / KINOMEscan: ABL1(F317I)-nonphosphorylated / KINOMEscan: ABL1(F317I)-phosphorylated / KINOMEscan: ABL1(F317L)-nonphosphorylated: unit: % Ctrl
# panel of 442 kinases [1] = biological target: T1, panel of 442 kinases (Homo sapiens, UniProt O96013); conditions: Compound Concentration 10 µM
# T1 construct: purchased KINOMEscan
# T1 sequence (O96013 whole entry): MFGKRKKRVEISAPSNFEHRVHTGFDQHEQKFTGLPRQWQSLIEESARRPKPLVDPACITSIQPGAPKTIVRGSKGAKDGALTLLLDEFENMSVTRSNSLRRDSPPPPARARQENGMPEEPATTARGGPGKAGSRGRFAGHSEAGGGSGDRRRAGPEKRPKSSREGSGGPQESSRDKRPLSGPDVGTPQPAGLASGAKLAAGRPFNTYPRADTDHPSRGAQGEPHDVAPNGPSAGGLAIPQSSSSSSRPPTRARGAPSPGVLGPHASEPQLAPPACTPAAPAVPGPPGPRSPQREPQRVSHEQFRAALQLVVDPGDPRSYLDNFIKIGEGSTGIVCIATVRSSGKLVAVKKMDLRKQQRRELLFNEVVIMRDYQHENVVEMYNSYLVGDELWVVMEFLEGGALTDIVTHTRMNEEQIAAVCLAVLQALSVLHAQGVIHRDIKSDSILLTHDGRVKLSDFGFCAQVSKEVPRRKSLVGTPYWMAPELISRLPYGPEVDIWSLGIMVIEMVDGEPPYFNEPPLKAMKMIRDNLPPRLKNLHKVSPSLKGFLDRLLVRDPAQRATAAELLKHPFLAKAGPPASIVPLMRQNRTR
# Text: (§1) We assessed the selectivity of members of this scaffold using the KINOMEscan methodology across a near comprehensive panel of 442 kinases [[18,27]].
# panel of 442 kinases [2] = biological target: T2, panel of 442 kinases (Homo sapiens, UniProt P08581, Y1235D); conditions: Compound Concentration 10 µM
# T2 construct: purchased KINOMEscan
# T2 sequence (P08581 25-1390 Y1235D): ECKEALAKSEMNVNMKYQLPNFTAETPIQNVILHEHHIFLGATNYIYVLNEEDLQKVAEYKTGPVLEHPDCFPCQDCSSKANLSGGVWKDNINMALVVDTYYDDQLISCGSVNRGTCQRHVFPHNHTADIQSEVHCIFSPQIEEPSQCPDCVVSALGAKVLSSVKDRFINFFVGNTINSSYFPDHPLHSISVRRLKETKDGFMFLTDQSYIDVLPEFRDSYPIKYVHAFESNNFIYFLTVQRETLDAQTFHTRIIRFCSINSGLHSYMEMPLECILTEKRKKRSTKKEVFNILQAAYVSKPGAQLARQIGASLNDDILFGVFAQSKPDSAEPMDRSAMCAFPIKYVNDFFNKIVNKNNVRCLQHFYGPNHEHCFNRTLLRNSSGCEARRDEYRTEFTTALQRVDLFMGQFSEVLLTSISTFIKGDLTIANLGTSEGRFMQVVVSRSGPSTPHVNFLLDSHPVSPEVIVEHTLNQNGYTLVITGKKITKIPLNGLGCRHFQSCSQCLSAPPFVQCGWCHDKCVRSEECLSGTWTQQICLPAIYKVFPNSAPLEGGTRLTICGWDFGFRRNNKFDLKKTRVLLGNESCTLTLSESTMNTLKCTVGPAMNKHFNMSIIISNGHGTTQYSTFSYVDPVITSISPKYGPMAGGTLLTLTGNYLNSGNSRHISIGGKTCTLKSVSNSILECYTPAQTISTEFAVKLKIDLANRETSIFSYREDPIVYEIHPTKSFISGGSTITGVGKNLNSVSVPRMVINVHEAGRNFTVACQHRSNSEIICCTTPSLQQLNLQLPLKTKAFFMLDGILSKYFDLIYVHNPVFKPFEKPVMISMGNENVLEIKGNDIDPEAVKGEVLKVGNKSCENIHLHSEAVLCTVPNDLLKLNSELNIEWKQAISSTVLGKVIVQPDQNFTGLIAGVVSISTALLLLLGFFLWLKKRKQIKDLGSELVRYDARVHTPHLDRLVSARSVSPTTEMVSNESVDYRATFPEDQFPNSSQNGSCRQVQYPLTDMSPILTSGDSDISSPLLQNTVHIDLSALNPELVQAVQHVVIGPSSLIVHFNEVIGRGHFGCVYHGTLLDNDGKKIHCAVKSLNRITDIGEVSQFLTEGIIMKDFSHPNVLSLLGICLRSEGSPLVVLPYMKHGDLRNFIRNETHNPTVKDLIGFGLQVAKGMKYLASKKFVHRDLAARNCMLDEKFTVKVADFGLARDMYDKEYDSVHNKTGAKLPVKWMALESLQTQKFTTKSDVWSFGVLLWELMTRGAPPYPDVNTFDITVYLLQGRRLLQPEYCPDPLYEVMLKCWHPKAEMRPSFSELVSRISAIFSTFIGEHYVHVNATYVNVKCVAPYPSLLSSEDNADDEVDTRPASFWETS
# Text: as §1
# panel of 442 kinases [3] = biological target: T3, panel of 442 kinases (Homo sapiens, UniProt Q14012); conditions: Compound Concentration 10 µM
# T3 construct: purchased KINOMEscan
# T3 sequence (Q14012 whole entry): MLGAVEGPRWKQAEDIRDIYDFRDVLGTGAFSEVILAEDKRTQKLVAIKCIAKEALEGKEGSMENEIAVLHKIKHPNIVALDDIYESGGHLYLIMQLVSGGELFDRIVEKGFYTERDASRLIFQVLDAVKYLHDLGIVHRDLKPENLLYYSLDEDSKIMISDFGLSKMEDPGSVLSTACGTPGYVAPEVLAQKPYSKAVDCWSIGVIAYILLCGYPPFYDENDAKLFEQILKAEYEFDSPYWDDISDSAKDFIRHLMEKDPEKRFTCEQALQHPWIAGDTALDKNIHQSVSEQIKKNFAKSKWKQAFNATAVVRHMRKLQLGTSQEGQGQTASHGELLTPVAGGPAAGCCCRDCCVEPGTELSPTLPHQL
# Text: as §1
# panel of 442 kinases [4] = biological target: T4, panel of 442 kinases (Homo sapiens, UniProt Q9UKE5); conditions: kinase TNIK; compound concentration 10 µM
# T4 construct: purchased KINOMEscan
# T4 sequence (Q9UKE5 whole entry): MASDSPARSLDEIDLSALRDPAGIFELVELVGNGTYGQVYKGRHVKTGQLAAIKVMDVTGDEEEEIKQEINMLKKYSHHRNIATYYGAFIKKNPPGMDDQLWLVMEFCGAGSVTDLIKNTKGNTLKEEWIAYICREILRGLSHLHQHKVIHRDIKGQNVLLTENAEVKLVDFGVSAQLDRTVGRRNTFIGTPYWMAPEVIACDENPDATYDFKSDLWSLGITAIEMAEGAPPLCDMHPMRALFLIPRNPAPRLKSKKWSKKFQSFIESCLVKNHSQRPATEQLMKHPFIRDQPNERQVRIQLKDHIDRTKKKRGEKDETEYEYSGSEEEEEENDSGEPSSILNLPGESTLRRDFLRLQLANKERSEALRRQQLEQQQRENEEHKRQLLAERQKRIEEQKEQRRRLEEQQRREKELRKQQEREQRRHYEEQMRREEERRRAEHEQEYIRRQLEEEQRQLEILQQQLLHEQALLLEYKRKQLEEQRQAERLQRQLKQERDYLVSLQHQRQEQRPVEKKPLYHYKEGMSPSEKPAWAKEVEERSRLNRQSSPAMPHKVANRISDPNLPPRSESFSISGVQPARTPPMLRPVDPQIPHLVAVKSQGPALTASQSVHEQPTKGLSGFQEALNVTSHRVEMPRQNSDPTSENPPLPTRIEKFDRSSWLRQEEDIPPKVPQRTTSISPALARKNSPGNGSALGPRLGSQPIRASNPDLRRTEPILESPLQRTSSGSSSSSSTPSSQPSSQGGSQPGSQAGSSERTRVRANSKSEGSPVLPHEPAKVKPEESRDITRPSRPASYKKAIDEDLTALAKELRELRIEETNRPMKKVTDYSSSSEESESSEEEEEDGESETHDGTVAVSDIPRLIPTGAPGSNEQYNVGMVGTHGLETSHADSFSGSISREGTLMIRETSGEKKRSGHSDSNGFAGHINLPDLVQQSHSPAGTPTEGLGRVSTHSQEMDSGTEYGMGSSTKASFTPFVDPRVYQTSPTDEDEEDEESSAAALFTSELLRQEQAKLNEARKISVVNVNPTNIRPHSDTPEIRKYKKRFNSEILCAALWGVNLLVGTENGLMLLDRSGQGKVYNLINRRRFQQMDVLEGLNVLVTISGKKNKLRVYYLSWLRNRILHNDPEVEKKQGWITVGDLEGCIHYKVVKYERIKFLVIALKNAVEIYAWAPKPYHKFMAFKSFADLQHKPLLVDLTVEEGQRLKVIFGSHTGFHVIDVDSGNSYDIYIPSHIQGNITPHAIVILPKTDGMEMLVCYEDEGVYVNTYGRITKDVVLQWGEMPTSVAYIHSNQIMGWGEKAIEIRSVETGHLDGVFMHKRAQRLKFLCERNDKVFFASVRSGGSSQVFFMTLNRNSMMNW
# Text: as §1
SMILES,KINOMEscan: PAK4 (panel of 442 kinases [1]),KINOMEscan: MET(Y1235D) (panel of 442 kinases [2]),KINOMEscan: CAMK1 (panel of 442 kinases [3]),"% Ctrl, TNIK (panel of 442 kinases [4]) [% Ctrl]"
COc1cc(C(=O)N2CCC(N3CCN(C)CC3)CC2)ccc1Nc1ncc2c(n1)N(C)c1ccccc1C(=O)N2C [15 (LRRK2-IN-1)],94,100,55,100
COc1cc(C(=O)N2CCC(N3CCN(C)CC3)CC2)ccc1Nc1ncc2c(n1)N1CCc3cccc(c31)C(=O)N2C [Compound 24],–,74,68,56
"COc1cc(C(=O)N2CCC(N3CCN(C)CC3)CC2)ccc1Nc1ncc2c(n1)N(C1CCCC1)c1ccccc1C(=O)N2C [Compound 25, 11-cyclopentyl-2-((2-methoxy-4-(4-(4-methylpiperazin-1-yl)piperidine-1-carbonyl)phenyl)amino)-5-methyl-5H-benzo[e]pyrimido[5,4-b][1,4]diazepin-6(11H)-one]",91,100,48,100
CCOc1cc(C(=O)N2CCC(N3CCN(C)CC3)CC2)ccc1Nc1ncc2c(n1)N(C1CCCC1)c1ccccc1C(=O)N2C [Compound 26],100,100,37,94
